Laboratory results from ChEMBL document CHEMBL4507319 (2021).

Tests used:
[1] = test system: Tyrosine-protein kinase ABL1 (Homo sapiens), P00519 [H396P]; settings: Compound concentration 1000.0 nM
[2] = molecular target: T1, Tyrosine-protein kinase Tec (Homo sapiens) (UniProt P42680); settings: Compound concentration 1000.0 nM
T1 sequence (whole entry): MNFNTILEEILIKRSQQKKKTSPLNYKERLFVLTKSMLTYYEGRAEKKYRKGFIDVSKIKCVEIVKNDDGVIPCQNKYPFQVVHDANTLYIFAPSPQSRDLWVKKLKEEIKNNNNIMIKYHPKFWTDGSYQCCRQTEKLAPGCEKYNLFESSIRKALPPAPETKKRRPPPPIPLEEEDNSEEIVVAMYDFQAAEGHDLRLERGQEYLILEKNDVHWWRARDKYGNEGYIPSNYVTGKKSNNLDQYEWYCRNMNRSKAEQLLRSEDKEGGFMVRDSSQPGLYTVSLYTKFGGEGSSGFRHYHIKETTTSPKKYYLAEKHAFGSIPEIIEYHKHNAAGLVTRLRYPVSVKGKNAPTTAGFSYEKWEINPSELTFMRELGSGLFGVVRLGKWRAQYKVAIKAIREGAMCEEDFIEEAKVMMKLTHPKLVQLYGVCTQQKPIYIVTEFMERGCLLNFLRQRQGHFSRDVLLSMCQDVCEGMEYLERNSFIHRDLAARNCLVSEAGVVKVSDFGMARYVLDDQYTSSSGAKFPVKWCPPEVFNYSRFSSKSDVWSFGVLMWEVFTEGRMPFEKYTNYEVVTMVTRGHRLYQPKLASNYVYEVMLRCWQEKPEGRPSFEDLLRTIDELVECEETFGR

[3] = test system: Receptor-type tyrosine-protein kinase FLT3 (Homo sapiens), P36888 [N841I]; settings: Compound concentration 1000.0 nM
[4] = molecular target: Cyclin-dependent kinase 9 (Homo sapiens) (UniProt P50750); settings: Compound concentration 1000.0 nM
Sequence of Cyclin-dependent kinase 9 (Homo sapiens) (P50750 whole entry): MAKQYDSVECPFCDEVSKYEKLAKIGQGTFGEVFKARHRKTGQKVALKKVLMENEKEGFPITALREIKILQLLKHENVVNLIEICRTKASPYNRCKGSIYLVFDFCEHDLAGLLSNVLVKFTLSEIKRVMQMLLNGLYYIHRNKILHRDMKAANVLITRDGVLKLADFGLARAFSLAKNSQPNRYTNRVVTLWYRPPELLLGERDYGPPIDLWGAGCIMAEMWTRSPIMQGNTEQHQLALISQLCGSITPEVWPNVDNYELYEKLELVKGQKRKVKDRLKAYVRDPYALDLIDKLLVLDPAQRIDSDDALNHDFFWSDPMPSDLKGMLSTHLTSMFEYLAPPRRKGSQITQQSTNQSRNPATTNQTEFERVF

[5] = molecular target: Cyclin-dependent kinase 17 (Homo sapiens) (UniProt Q00537); settings: Compound concentration 1000.0 nM
Sequence of Cyclin-dependent kinase 17 (Homo sapiens) (Q00537 whole entry, looked up): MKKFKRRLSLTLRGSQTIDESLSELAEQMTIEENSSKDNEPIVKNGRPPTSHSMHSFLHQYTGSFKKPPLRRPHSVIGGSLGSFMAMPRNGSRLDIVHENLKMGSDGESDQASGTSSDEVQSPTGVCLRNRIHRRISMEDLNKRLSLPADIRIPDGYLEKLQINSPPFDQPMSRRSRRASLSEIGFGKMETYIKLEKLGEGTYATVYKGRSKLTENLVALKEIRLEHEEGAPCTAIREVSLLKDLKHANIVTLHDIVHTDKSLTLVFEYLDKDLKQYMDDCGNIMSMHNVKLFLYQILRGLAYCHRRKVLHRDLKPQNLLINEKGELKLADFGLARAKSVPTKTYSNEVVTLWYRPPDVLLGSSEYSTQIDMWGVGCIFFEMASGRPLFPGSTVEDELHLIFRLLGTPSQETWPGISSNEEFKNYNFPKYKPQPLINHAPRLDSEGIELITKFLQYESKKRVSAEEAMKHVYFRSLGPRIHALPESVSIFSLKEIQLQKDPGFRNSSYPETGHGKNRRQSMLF

[6] = test system: Epidermal growth factor receptor (Homo sapiens), P00533 [G719S]; settings: Compound concentration 1000.0 nM
[7] = molecular target: Phosphatidylinositol 4-phosphate 5-kinase type-1 gamma (Homo sapiens) (UniProt O60331); settings: Compound concentration 1000.0 nM
Sequence of Phosphatidylinositol 4-phosphate 5-kinase type-1 gamma (Homo sapiens) (O60331 whole entry): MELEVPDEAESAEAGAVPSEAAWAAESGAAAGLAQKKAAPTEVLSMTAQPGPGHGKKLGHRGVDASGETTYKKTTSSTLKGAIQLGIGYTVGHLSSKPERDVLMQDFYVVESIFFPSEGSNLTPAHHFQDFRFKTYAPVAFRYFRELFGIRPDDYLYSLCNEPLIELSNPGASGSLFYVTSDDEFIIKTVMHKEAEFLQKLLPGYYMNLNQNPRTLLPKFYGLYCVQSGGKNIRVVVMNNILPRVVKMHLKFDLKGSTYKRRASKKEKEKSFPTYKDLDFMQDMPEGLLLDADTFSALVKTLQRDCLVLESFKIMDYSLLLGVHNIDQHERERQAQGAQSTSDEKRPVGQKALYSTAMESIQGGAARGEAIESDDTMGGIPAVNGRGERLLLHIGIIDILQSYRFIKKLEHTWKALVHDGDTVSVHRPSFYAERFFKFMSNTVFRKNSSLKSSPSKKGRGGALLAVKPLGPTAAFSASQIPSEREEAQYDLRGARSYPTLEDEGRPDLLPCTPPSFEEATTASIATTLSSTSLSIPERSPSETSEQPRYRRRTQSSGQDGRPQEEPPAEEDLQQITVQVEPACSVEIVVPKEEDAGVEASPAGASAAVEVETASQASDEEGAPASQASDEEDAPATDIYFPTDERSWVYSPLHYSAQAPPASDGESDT

[8] = molecular target: Homeodomain-interacting protein kinase 1 (Homo sapiens) (UniProt Q86Z02); settings: Compound concentration 1000.0 nM
[9] = molecular target: T2, Serine/threonine-protein kinase MAK (Homo sapiens) (UniProt P20794); settings: Compound concentration 1000.0 nM
T2 sequence (whole entry): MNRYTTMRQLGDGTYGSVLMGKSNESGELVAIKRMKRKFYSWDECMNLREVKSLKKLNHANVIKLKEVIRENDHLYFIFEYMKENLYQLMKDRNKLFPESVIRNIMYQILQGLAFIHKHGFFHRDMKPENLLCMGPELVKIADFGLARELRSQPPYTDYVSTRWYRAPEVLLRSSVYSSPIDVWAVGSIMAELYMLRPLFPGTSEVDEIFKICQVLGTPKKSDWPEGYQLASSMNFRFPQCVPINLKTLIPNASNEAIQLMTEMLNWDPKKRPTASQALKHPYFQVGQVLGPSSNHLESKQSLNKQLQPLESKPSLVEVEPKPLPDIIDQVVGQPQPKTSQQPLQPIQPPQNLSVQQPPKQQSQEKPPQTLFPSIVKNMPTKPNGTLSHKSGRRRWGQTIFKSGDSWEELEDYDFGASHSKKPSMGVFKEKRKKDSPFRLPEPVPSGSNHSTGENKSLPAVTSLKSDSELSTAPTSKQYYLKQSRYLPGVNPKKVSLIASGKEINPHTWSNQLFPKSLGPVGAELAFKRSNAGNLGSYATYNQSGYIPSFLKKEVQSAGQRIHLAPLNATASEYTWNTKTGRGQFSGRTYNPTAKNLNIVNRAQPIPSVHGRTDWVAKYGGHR

[10] = molecular target: Tyrosine-protein kinase JAK2 (Homo sapiens) (UniProt O60674); settings: Compound concentration 1000.0 nM
Sequence of Tyrosine-protein kinase JAK2 (Homo sapiens) (O60674 whole entry): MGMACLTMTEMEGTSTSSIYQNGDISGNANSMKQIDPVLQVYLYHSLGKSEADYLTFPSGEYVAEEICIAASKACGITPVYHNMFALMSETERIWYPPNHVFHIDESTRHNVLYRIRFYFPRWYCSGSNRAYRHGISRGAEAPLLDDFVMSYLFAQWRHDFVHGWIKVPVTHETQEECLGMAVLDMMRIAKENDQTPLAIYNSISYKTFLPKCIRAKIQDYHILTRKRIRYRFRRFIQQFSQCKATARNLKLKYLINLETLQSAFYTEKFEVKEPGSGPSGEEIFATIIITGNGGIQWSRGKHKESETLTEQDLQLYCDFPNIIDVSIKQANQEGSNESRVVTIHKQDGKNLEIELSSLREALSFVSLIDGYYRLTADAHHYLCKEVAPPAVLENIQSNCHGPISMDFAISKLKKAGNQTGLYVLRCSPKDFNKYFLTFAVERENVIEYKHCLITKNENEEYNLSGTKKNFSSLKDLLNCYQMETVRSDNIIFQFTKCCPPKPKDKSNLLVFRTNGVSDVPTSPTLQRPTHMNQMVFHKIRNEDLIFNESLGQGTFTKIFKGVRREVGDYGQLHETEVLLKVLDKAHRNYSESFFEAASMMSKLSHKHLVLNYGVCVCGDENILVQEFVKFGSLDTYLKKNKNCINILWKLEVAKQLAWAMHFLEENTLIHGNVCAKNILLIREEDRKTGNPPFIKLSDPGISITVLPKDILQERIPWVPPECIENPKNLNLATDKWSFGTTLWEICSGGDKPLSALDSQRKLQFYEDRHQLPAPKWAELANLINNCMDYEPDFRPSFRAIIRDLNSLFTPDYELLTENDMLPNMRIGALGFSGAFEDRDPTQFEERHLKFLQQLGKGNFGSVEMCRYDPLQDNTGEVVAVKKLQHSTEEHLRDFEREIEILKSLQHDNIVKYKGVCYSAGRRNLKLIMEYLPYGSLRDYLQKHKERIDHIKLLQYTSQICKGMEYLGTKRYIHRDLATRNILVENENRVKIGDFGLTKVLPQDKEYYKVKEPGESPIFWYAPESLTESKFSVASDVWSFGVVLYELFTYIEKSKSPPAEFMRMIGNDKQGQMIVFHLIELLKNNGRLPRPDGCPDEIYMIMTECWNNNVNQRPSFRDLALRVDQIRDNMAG

[11] = molecular target: Sodium-dependent serotonin transporter (Homo sapiens) (UniProt P31645); settings: Compound concentration 10.0 uM
Sequence of Sodium-dependent serotonin transporter (Homo sapiens) (P31645 whole entry, looked up): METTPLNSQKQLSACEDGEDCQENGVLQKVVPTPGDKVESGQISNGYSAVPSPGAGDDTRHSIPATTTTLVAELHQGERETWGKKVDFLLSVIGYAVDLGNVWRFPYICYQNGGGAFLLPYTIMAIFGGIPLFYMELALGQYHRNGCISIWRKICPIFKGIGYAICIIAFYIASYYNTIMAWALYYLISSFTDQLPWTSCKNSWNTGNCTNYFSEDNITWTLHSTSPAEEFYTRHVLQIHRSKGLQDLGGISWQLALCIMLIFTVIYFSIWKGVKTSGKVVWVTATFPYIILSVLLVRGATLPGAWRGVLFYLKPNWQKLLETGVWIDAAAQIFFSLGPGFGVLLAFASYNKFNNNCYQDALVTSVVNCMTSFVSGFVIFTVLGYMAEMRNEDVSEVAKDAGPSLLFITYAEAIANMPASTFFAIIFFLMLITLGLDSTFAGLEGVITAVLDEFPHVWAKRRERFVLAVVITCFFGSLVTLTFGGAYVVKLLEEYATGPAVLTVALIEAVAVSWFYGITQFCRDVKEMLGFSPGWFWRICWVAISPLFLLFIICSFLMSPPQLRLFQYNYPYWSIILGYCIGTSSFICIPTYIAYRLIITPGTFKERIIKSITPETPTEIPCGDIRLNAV

[12] = molecular target: Ribosomal protein S6 kinase alpha-5 (Homo sapiens, UniProt O75582); settings: Compound concentration 1000.0 nM
Sequence of Ribosomal protein S6 kinase alpha-5 (O75582 whole entry, looked up): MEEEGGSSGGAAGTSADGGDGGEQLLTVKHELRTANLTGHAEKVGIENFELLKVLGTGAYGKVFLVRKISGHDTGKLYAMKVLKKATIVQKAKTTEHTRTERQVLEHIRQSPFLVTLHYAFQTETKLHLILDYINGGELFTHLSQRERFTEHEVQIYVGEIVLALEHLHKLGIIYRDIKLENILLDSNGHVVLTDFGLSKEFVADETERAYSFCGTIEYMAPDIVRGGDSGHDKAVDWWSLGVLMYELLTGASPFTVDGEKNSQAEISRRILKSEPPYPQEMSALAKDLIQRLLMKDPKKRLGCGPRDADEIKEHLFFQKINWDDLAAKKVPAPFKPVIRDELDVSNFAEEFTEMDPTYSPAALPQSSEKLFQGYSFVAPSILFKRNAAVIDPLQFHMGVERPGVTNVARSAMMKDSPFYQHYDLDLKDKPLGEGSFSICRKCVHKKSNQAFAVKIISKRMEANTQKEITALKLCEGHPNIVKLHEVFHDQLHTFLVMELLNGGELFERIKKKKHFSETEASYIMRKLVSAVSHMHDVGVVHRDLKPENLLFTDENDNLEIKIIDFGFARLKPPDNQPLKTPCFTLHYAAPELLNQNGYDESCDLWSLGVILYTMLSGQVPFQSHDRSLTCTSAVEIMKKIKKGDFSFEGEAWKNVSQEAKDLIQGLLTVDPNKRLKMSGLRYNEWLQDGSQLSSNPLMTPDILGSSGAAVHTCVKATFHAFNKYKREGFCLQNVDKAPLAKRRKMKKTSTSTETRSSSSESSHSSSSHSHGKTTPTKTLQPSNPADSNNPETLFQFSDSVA

[13] = test system: Leucine-rich repeat serine/threonine-protein kinase 2 (Homo sapiens), Q5S007 [G2019S]; settings: Compound concentration 1000.0 nM
[14] = test system: Receptor-type tyrosine-protein kinase FLT3 (Homo sapiens), P36888 [D835V]; settings: Compound concentration 1000.0 nM
[15] = molecular target: Serine/threonine-protein kinase LATS1 (Homo sapiens) (UniProt O95835); settings: Compound concentration 1000.0 nM
[16] = molecular target: Cyclin-dependent kinase 4 (Homo sapiens) (UniProt P11802); settings: Compound concentration 1000.0 nM
Sequence of Cyclin-dependent kinase 4 (Homo sapiens) (P11802 whole entry): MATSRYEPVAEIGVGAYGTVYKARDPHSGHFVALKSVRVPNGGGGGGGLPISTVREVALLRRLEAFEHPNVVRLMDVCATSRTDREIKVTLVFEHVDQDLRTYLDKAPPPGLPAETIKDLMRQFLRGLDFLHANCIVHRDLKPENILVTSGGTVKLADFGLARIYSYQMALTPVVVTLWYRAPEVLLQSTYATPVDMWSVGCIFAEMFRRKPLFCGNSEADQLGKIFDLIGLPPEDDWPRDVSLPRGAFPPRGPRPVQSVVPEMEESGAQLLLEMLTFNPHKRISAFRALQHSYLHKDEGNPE

[17] = molecular target: Alpha-1B adrenergic receptor (Homo sapiens) (UniProt P35368); settings: Compound concentration 10.0 uM
Sequence of Alpha-1B adrenergic receptor (Homo sapiens) (P35368 whole entry): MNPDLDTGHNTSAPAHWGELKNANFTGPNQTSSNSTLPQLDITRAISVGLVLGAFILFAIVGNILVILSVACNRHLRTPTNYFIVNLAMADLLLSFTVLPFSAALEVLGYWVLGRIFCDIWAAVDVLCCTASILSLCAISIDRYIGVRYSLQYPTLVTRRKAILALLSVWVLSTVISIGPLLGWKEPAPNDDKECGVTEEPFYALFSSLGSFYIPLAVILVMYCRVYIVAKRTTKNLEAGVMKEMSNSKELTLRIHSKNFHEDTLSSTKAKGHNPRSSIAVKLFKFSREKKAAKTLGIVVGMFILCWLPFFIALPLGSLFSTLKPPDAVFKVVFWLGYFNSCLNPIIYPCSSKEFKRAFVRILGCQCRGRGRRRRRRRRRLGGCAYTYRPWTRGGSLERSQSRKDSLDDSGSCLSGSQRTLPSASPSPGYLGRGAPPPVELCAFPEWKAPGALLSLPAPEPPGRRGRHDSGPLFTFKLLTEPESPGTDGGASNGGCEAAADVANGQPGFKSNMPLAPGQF

CC1=C(C#N)C(c2ccc3c(c2)c(NC(=O)c2ccccc2C)nn3C)C(C#N)=C(C)N1 [BAY-974]
inactive: residual activity [1] 100% | residual activity [2] 100% | residual activity [3] 74% | residual activity [4] 100% | residual activity [5] 100% | residual activity [6] 87% | residual activity [7] 91% | residual activity [8] 71% | residual activity [9] 100% | residual activity [10] 77% | inhibition [11] -6.29% | residual activity [12] 87% | residual activity [13] 100% | residual activity [14] 90% | residual activity [15] 85% | residual activity [16] 100% | inhibition [17] -4.61%

CCc1ccccc1C(=O)Nc1n[nH]c2c(C)c(F)c(C3C(C#N)=C(C)N(C)C(C)=C3C#N)cc12 [BAY-3827]
active: residual activity [3] 0% | residual activity [14] 3.2%
inactive: residual activity [1] 95% | residual activity [2] 91% | residual activity [4] 94% | residual activity [5] 93% | residual activity [6] 61% | residual activity [7] 56% | residual activity [8] 99% | residual activity [9] 100% | residual activity [10] 100% | inhibition [11] -6.24% | residual activity [12] 90% | residual activity [13] 100% | residual activity [15] 100% | residual activity [16] 100% | inhibition [17] -9.38%
